Source: US6864246B2, “Anilide and cyclodextrin complexes, their preparation and their use as medicine in particular for treating dyslipidemiae” (Pierre Fabre Medicament, priority 2001, dated 2005)
Converted amounts (≈) assume the structure as drawn. Where two headings read alike, the source gives them in different places.

Experiments:
[1] = Solubility at saturation of F12511 in solvents at 25° C.; assay type: physicochemical; conditions: thermodynamic from solid
Protocol: By way of example, the table below gives some characteristic solubilities at saturation, at 25° C.: […]

[2] = physchem; conditions: 25 °C, aqueous with cosolvent or surfactant or cyclodextrin, thermodynamic from solid
[3] = 1 h
[4] = 25° C.; cited from earlier work
[5] = Amount of F12511 solubilized in a solution of sodium lauryl sulfate at 5%

solubility ([1]; Macrogol 400, 25 °C, organic solvent or mixture, Macrogol 400, 25° C., read-out: Solubility at saturation) [µg/mL]	solubility ([1]; corn oil, 25 °C, oil or lipid, Corn oil, 25° C., read-out: Solubility at saturation) [µg/mL]	solubility ([1]; ethanol, 25 °C, organic solvent or mixture, Ethanol, 25° C., read-out: Solubility at saturation) [µg/mL]	solubility ([1]; ethyl alcohol at 95%, 25 °C, organic solvent or mixture, ethyl alcohol at 95%, read-out: Solubility at saturation) [µg/mL]	solubility ([1]; water, 25 °C, water, Water, 25° C., limit of analytical detection, read-out: Solubility at saturation) [µg/mL]	solubility ([1]; water, 25 °C, water, water, limit of analytical detection, read-out: Solubility at saturation in water) [µg/mL]	solubility at 2 h ([2]; Amount of F12511 solubilized) [µg/mL]	solubility at 5 min [2, 5] [µg/mL]	solubility at 30 min [2, 5] [µg/mL]	solubility at 1 h [2, 5] [µg/mL]	solubility at 2 h [2, 5] [µg/mL]	Amount of F12511 solubilized in a solution of sodium lauryl sulfate at 5% [3] [µg/mL]	SMILES	Water-solubility [4]
1000 (≈ 2130 µM)	300 (≈ 639 µM)	7000 (≈ 14900 µM)	≤ 2000	< 0.05	< 0.05	~10 (≈ 21.3 µM)	1 (≈ 2.13 µM)	3 (≈ 6.39 µM)	5 (≈ 10.6 µM)	11 (≈ 23.4 µM)	5	CCCCCCCCCCCCS[C@H](C(=O)Nc1cc(C)c(O)c(C)c1C)c1ccccc1 [Example F12511, (S)-2′,3′,5′-trimethyl-4′-hydroxy-α-dodecylthiophenylacetanilide]	–
–	–	–	–	–	–	–	–	–	–	–	–	OC[C@H]1O[C@@H]2O[C@H]3[C@H](O)[C@@H](O)[C@@H](O[C@H]4[C@H](O)[C@@H](O)[C@@H](O[C@H]5[C@H](O)[C@@H](O)[C@@H](O[C@H]6[C@H](O)[C@@H](O)[C@@H](O[C@H]7[C@H](O)[C@@H](O)[C@@H](O[C@H]1[C@H](O)[C@H]2O)O[C@@H]7CO)O[C@@H]6CO)O[C@@H]5CO)O[C@@H]4CO)O[C@@H]3CO [α-cyclodextrin]	14.2 g % ml,
